Reference: US20200326330A1, “Device and method for multidimensional cell culture” (Premas Biotech Pvt Ltd, priority 2019, published 2020)

Experiments:
MCF-7 cells [1] = experiment: Prestoblue viability of MCF-7 2D monolayer culture; type: cell-based; conditions: Homo sapiens, MCF7, 1 μM doxorubicin, 48 hrs, read-out: viability (prestoblue, normalized with vehicle control as 100%)
MCF-7 cells [2] = experiment: Morphology and growth of MCF-7 cells in 2D monolayer culture treated with doxorubicin; type: cell-based, human; conditions: MCF-7 2D monolayer, 3 days
MCF-7 tissueoids [3] = experiment: Morphology and growth of MCF-7 tissueoids on AXTEX-4D treated with doxorubicin; type: cell-based, human; conditions: 3 days
MCF-7 tissueoids [4] = experiment: Prestoblue viability of MCF-7 tissueoids (3D) on AXTEX-4D

COc1cccc2c1C(=O)c1c(O)c3c(c(O)c1C2=O)C[C@@](O)(C(=O)CO)C[C@@H]3O[C@H]1C[C@H](N)[C@H](O)[C@H](C)O1 [doxorubicin, Doxorubicin]
viability at 1 µM (MCF-7 cells [1]): 35% | morphology (vacuoles) in 2D culture (MCF-7 cells [2]; 1 μM doxorubicin): Vacuoles were observed | growth inhibition in 2D culture (MCF-7 cells [2]; vs DMSO vehicle control): Dose-dependent growth inhibition | growth of tissueoids (MCF-7 tissueoids [3]; 2.5 μM doxorubicin): not inhibited | growth of tissueoids (MCF-7 tissueoids [3]; 5 μM doxorubicin): Partial growth inhibition | tissueoid morphology at higher concentration (MCF-7 tissueoids [3]; higher concentration (5)): shrinking of the tissueoid was visible | viability at 1 µM (MCF-7 tissueoids [4]; Homo sapiens, MCF7, 48 h, read-out: viability (prestoblue, normalized with vehicle control as 100%)): ~80% | resistance of tissueoids compared to vehicle control (MCF-7 tissueoids [4]; MCF-7 tissueoids, 1 μM doxorubicin): partial resistance
